The numbers were not newly measured in patent US7084135B1, “Prenyl transferase inhibitors” (Societe de Conseils de Recherches et d'Applications …, priority 1998, dated 2006), which cites them from elsewhere.

One data set deals with HT29, adenocarcinoma. Conditions: Colon: HT29, adenocarcinoma with Wild Type ras (WT).
For the next data set, the system named is DU145 adenocarcinoma. To be noted: Prostate: DU145 adenocarcinoma, with WT ras.

Take `CC[C@H](C)[C@@H](COC(Cc1ccccc1)C(=O)N[C@@H](CCS(C)(=O)=O)C(=O)OC(C)C)NC[C@@H](N)CS` (some centres unmarked) [Compound L744-832]: the “sensitivity of cell line to L744-832” value in the data set on HT29, adenocarcinoma is “sensitive”; with DU145 adenocarcinoma, “resistant”.
